According to ChEMBL document CHEMBL3991601, “The target landscape of clinical kinase drugs” (Science, 2017):
Active and inactive are the calls of the source.

Key:
[1] = molecular target: S-adenosylmethionine synthase isoform type-2 (Homo sapiens, UniProt P31153)
[2] = molecular target: Platelet-derived growth factor receptor beta (Homo sapiens, UniProt P09619)
Midasin = Midasin (Homo sapiens, UniProt Q9NU22)
[3] = molecular target: Protein kinase C alpha type (Homo sapiens, UniProt P17252)
[4] = molecular target: T1, Serine/threonine-protein kinase NLK (Homo sapiens, UniProt Q9UBE8)
T1 sequence (Q9UBE8 whole entry): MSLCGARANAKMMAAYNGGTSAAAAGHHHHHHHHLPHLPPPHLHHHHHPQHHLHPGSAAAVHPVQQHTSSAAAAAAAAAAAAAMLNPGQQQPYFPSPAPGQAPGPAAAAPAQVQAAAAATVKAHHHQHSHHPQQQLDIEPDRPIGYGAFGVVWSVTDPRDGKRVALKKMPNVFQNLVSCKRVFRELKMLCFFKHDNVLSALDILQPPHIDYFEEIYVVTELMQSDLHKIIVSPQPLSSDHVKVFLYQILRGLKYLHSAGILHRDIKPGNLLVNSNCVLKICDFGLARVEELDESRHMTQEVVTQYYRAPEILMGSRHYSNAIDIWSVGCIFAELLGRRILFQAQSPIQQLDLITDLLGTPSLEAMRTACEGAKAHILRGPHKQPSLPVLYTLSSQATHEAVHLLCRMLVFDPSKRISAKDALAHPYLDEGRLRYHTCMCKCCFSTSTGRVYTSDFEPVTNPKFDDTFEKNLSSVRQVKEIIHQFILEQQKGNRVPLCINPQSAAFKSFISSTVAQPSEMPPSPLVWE

[5] = molecular target: T2, Serine/threonine-protein kinase A-Raf (Homo sapiens, UniProt P10398)
T2 sequence (P10398 whole entry): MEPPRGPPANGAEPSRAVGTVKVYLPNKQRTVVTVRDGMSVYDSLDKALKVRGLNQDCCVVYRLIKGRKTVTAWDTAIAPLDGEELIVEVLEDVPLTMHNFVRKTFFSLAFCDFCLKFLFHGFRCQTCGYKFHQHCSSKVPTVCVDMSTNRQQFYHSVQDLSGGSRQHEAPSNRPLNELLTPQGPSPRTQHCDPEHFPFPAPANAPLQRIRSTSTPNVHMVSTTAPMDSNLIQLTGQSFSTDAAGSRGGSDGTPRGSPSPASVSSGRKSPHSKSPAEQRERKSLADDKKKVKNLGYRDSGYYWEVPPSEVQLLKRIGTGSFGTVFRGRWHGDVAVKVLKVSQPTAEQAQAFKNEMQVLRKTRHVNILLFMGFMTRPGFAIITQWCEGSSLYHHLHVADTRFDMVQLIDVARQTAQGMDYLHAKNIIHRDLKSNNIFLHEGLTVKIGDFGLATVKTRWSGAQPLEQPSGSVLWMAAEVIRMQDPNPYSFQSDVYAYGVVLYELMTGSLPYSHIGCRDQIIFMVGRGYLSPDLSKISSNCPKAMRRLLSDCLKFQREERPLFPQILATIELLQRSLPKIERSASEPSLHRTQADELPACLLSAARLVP

[6] = molecular target: T3, Ras-related protein Rab-10 (Homo sapiens, UniProt P61026)
T3 sequence (P61026 whole entry): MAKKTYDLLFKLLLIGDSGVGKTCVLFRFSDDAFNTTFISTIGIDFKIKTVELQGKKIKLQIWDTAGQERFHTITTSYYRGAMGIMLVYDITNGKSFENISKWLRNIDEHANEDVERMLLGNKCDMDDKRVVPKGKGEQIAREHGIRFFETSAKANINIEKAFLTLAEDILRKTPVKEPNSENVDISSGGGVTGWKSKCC

LIM domain kinase 1 = LIM domain kinase 1 (Homo sapiens, UniProt P53667)
[7] = molecular target: T4, Dynamin-like GTPase OPA1, mitochondrial (Homo sapiens, UniProt O60313)
T4 sequence (O60313 whole entry): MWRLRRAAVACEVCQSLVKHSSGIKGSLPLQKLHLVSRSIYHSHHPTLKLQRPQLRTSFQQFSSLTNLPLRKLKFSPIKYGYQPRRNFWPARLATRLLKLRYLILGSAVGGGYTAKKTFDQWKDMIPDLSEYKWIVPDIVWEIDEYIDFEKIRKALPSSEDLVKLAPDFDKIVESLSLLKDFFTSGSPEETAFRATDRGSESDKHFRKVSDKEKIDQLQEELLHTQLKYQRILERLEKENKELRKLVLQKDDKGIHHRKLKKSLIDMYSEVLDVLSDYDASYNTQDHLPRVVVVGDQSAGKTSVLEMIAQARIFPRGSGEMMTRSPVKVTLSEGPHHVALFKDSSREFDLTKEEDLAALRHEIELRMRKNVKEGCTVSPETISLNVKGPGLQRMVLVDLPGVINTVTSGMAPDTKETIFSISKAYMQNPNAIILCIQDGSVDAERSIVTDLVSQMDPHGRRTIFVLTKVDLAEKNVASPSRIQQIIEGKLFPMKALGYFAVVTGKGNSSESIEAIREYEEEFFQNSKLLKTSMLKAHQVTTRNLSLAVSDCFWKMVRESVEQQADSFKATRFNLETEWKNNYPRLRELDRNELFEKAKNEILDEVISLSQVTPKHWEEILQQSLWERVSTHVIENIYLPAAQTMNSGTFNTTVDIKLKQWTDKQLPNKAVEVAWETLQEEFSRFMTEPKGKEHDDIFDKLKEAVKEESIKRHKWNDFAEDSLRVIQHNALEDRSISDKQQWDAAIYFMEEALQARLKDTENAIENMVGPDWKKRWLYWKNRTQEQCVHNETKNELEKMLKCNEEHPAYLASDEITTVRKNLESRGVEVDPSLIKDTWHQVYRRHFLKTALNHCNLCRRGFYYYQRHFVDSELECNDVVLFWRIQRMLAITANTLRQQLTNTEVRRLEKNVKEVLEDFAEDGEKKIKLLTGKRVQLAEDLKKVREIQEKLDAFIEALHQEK

Measured: Kd
Also: in the data inactive means no Kd found up to 30 µM.

Sequence of LIM domain kinase 1 (P53667 whole entry, the tested form may be a part): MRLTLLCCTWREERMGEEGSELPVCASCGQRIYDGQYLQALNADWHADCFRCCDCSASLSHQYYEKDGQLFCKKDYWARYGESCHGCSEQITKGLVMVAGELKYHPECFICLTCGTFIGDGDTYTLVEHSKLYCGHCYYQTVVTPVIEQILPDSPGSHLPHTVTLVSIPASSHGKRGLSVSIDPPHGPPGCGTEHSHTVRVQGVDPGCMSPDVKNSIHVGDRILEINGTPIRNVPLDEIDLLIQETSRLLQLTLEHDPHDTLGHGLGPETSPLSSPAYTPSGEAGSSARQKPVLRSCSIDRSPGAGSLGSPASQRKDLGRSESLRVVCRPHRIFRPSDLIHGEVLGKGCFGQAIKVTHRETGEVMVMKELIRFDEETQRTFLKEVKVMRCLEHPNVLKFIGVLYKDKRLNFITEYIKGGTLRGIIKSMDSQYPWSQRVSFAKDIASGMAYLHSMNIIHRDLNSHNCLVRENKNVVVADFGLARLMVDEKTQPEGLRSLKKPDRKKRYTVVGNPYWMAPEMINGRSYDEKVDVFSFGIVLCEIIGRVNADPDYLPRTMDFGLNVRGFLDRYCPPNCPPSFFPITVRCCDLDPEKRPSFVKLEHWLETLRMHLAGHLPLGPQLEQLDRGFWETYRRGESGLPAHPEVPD
Sequence of S-adenosylmethionine synthase isoform type-2 (P31153 whole entry, canonical isoform): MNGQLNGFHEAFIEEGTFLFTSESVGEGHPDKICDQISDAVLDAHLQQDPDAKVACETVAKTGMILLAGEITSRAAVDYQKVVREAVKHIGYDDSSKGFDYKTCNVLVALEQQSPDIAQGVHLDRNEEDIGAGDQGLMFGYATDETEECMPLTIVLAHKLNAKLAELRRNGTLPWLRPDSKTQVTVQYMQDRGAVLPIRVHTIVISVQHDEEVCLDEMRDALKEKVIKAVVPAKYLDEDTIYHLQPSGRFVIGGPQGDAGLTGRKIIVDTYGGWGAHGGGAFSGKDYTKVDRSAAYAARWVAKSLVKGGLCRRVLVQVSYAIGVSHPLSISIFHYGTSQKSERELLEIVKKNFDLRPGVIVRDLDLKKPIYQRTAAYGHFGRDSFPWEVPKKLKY
Sequence of Platelet-derived growth factor receptor beta (P09619 whole entry): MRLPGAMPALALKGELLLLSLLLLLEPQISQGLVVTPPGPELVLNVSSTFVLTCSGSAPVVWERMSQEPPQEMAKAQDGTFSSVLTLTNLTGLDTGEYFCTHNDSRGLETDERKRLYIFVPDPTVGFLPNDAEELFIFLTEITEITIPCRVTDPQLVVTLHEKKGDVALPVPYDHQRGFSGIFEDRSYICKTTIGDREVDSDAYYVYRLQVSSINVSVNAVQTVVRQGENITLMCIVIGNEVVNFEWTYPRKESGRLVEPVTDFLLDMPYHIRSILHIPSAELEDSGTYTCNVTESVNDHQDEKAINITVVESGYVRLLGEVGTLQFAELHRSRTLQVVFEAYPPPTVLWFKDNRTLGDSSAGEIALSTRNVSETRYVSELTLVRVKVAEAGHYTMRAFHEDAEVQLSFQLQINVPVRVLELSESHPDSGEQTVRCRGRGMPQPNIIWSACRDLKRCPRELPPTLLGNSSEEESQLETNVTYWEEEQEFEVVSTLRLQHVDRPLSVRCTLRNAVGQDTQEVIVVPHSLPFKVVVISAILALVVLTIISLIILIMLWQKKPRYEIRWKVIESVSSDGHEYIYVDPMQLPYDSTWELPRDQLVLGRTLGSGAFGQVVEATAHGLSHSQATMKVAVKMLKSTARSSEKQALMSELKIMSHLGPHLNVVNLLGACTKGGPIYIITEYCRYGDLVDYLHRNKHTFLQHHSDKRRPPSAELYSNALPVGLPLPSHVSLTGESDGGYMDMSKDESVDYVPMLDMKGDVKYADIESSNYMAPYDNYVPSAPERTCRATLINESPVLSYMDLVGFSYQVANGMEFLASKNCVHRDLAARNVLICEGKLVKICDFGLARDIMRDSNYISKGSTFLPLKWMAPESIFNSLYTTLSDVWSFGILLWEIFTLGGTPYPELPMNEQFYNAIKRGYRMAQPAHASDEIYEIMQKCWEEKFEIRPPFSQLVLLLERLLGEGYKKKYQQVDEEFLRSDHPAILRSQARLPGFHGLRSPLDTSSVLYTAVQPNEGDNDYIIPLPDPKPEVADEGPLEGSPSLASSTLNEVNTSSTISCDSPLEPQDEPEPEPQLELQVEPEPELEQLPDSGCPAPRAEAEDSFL

COc1cc2nccc(Oc3ccc(NC(=O)C4(C(=O)Nc5ccc(F)cc5)CC4)cc3)c2cc1OC [CABOZANTINIB]
inactive: [1] > 30 µM | [2] > 30 µM | Midasin > 30 µM | [3] > 30 µM | [4] > 30 µM | [5] > 30 µM | [6] > 30 µM | LIM domain kinase 1 > 30 µM | [7] > 30 µM
